According to the supplement of paper PMC10307832:

Experiments:
Experiment in all cases: relative viability (nuclei count vs DMSO), 5 days (fraction); higher = more cells survive
Crizotinib + Tozasertib = compound: C[C@@H](Oc1cc(-c2cnn(C3CCNCC3)c2)cnc1N)c1c(Cl)ccc(F)c1Cl [Crizotinib] + Cc1cc(Nc2cc(N3CCN(C)CC3)nc(Sc3ccc(NC(=O)C4CC4)cc3)n2)n[nH]1 [Tozasertib] (partner 0.1 µM)
How it was run: (§1)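 One day after seeding in 1536-well plates, lung cancer cell lines were dosed by pin tool. Dosing was either single-drug or a fixed anchor-drug dose plus five library-drug doses (not always all listed) in √10 steps. After 5 days, nuclei were stained in one fix-and-stain step and counted on 4× images, and relative viability is the nuclei count of treated wells over that of vehicle wells, given as the median of duplicate plates.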

Olaparib + Navitoclax = compound: O=C(c1cc(Cc2n[nH]c(=O)c3ccccc23)ccc1F)N1CCN(C(=O)C2CC2)CC1 [Olaparib] + CC1(C)CCC(c2ccc(Cl)cc2)=C(CN2CCN(c3ccc(C(=O)NS(=O)(=O)c4ccc(N[C@H](CCN5CCOCC5)CSc5ccccc5)c(S(=O)(=O)C(F)(F)F)c4)cc3)CC2)C1 [Navitoclax] (partner 0.5 µM)
How it was run: as §1

Crizotinib + Olaparib = compound: C[C@@H](Oc1cc(-c2cnn(C3CCNCC3)c2)cnc1N)c1c(Cl)ccc(F)c1Cl [Crizotinib] + O=C(c1cc(Cc2n[nH]c(=O)c3ccccc23)ccc1F)N1CCN(C(=O)C2CC2)CC1 [Olaparib] (partner 8 µM)
How it was run: as §1

Crizotinib + Palbociclib = compound: C[C@@H](Oc1cc(-c2cnn(C3CCNCC3)c2)cnc1N)c1c(Cl)ccc(F)c1Cl [Crizotinib] + CC(=O)c1c(C)c2cnc(Nc3ccc(N4CCNCC4)cn3)nc2n(C2CCCC2)c1=O [Palbociclib] (partner 0.5 µM)
How it was run: as §1

| Cell Line | relative viability (Crizotinib + Tozasertib; first compound 0.01 µM) | relative viability (Crizotinib + Tozasertib; first compound 0.03162 µM) | relative viability (Crizotinib + Tozasertib; first compound 0.1 µM) | relative viability (Crizotinib + Tozasertib; first compound 0.3162 µM) | relative viability (Crizotinib + Tozasertib; first compound 1 µM) | relative viability (Olaparib + Navitoclax; first compound 0.08 µM) | relative viability (Olaparib + Navitoclax; first compound 0.253 µM) | relative viability (Olaparib + Navitoclax; first compound 2.53 µM) | relative viability (Olaparib + Navitoclax; first compound 8 µM) | relative viability (Crizotinib + Olaparib; first compound 0.01 µM) | relative viability (Crizotinib + Olaparib; first compound 0.03162 µM) | relative viability (Crizotinib + Olaparib; first compound 0.1 µM) | relative viability (Crizotinib + Olaparib; first compound 0.3162 µM) | relative viability (Crizotinib + Olaparib; first compound 1 µM) | relative viability (Crizotinib + Palbociclib; first compound 0.01 µM) | relative viability (Crizotinib + Palbociclib; first compound 0.03162 µM) | relative viability (Crizotinib + Palbociclib; first compound 0.1 µM) | relative viability (Crizotinib + Palbociclib; first compound 0.3162 µM) | relative viability (Crizotinib + Palbociclib; first compound 1 µM) |
| --- | --- | --- | --- | --- | --- | --- | --- | --- | --- | --- | --- | --- | --- | --- | --- | --- | --- | --- | --- |
| LXF-289 | 0.221 | 0.201 | 0.18 | 0.157 | 0.197 | 1.03 | 0.9 | 1.02 | 0.96 | 0.994 | 1.12 | 1.15 | 0.993 | 1.11 | 0.583 | 0.591 | 0.626 | 0.569 | 0.582 |
| NCI-H23 | 0.414 | 0.36 | 0.307 | – | 0.363 | 0.953 | 0.684 | 0.603 | 0.387 | 0.317 | 0.271 | 0.317 | – | 0.388 | 0.343 | 0.504 | 0.53 | – | 0.536 |
| NCI-H322M | 0.482 | 0.515 | 0.48 | 0.49 | 0.459 | 1.34 | 1.07 | 1.23 | 1.01 | – | 0.839 | 0.746 | 0.658 | 0.777 | – | 0.486 | 0.465 | 0.53 | 0.447 |
| NCI-H441 | 0.527 | 0.609 | 0.536 | – | 0.837 | – | 0.406 | 0.706 | 0.582 | 0.595 | 0.444 | 0.583 | 0.517 | 0.587 | 0.207 | 0.267 | 0.212 | 0.188 | 0.2 |
| NCI-H460 | 0.368 | 0.441 | 0.474 | 0.248 | 0.455 | 1.18 | 0.94 | 0.815 | 0.424 | 0.463 | 0.457 | 0.455 | – | 0.423 | 0.213 | 0.194 | 0.175 | 0.166 | 0.177 |
| NCI-H520 | 0.47 | 0.469 | 0.448 | 0.45 | 0.458 | 1.32 | 0.932 | 1.08 | 0.601 | 0.285 | 0.35 | 0.408 | 0.301 | 0.349 | 0.24 | 0.24 | 0.205 | 0.204 | 0.195 |
| NCI-H647 | 0.267 | 0.305 | 0.248 | 0.26 | 0.204 | 1.44 | 1.1 | 1.06 | 0.745 | 0.444 | 0.68 | 0.564 | 0.505 | 0.597 | 0.358 | 0.421 | 0.368 | 0.404 | 0.526 |
| NCI-H727 | – | 0.605 | 0.612 | – | 0.634 | 0.42 | 0.344 | 0.321 | 0.204 | 0.462 | 0.565 | 0.647 | 0.518 | 0.737 | 0.703 | 0.621 | 0.655 | 0.639 | 0.595 |
| NCI-H838 | 0.243 | 0.296 | 0.246 | 0.266 | 0.269 | 1.12 | 1.06 | 1.03 | 1.03 | 0.712 | 0.763 | 0.78 | 0.712 | 0.726 | 0.178 | 0.248 | 0.225 | 0.239 | 0.236 |
